Entries after “also recorded” stand apart in the source; their conditions may differ.
Experiments:
HS-578T TNBC cell line = test: Caspase 3/7 activation in Hs578T cells; type: cell-based; details: 10 μM, 4 hr
Description: (§1) FIGS. 7A-7H illustrate the finding that similar death-inducing effects are observed in other triple negative cells lines BT-549 and Hs578T. […] FIG. 7D represents a graphical quantification of caspase3/7 activation by 3D in BT-549. […] FIG. 7H represents a graphical quantification of caspase3/7 activation by 3D in HS-578T.
(§2) In order to explore the broader effects of 3D in the killing of TNBC cells, the experiments reported in Example 2 were repeated in 2 additional cells lines BT-549 and Hs578T.

BT-549 TNBC cell line = test: Caspase 3/7 activation in BT-549 cells; type: cell-based; details: 10 μM, 4 hr
Description: as §1, §2

MDA-MB-231 cells [1] = test: ROS detection (Muse oxidative stress kit) in MDA-MB-231 cells; type: cell-based, human; details: 10 μM, 4 hrs
Description: (§3) FIG. 4B is a set of images of MDA-MB-231 (TNBC cells) co-cultured with MCF-10A (normal mammary cells) after exposure to DMSO control (left) as well as 3D (right). FIGS. 5A-5E illustrate the finding that 3D induces a rise in reactive oxygen species (ROS) inside TNBC cells and not normal healthy cells.
(§4) Manipulation of reactive oxygen species (ROS) levels is one potential mechanistic target for anti-cancer molecules because high levels of ROS can promote cell death. […] Levels of ROS were detected by assessing the conversion of a non-fluorescent compound (dihydroethidium) to its oxidized metabolite (ethidium bromide) in the presence of intracellularly accumulated ROS following 3D administration using a Muse oxidative stress kit.

MDA-MB-231 cells [2] = test: Caspase 3/7 activity assay in MDA-MB-231 cells; type: cell-based, human; details: for caspase 3/7 positive cells: DMSO 6.4±1.1%, n=3
Protocol: To identify mechanisms involved in the apoptotic death induced by compound 3D the iodine group (3D) was substituted by a fluorine group (3C) and a caspase 3/7 activity assay kit was utilized, which detects downstream effector apoptosis-causing caspases to assess death of TNBC cells. […] Quantitatively, 49.5±8.3% of cells were caspase 3/7 positive when treated with compound 3D compared to only 6.4±1.1% in the DMSO control group p<0.005 (FIG. 3D).
Further substitution experiments were conducted, replacing the para iodine with chlorine or bromine, as well as experiments wherein the sulfone was removed. To help identify mechanisms involved in the apoptotic death induced by compound 3D, the iodine group was substituted with chlorine or bromine. A caspase 3/7 activity assay kit was used to detect downstream effector apoptosis-causing caspases to assess death of TNBC cells. […] Additionally, when a compound was generated lacking the sulfonyl group, all cytotoxic effects of 3D on TNBC cells was abolished.

MDA-MB-231 cells [3] = test: Colony formation of MDA-MB-231 cells with and without radiation; type: cell-based, human; details: 2 Gray radiation dose
Protocol: FIG. 1A is a set of images illustrating colonies of MDA-MB-231 cells exposed to DMSO (control) and compound 3D (10 μM, 4 hrs).
FIG. 1B reports the results depicted in FIG. 1A as a bar graph.
Compound 3D was previously shown to radiosensitize ER-positive breast cancer and prostate cancer cells (U.S. Pat. No. 8,541,476). This compound was then tested to see if it would radiosensitize aggressive TNBC cells such as MDA-MB-231.

prostate cancer cells = details: U.S. Pat. No. 8,541,476; cited from earlier work
H2AX (P-H2AX ser139) = test: Western blot of H2AX phosphorylation in MDA-MB-231 cells; type: cell-based, human; details: 4 hr treatment
Description: (§5) Effects of 3D on DNA damage in MDA-MB-231 cells was compared to a matching dose of DMSO vehicle.

MCF-10A cells = test: ROS detection (Muse oxidative stress kit) in normal MCF-10A cells; type: cell-based, human; details: 10 μM, 4 hrs, p=0.9
Description: as §3, §4

[4] = tested on: MCF-10A cells co-cultured with MDA-MB-231 cells; test: Co-culture of MCF-10A and MDA-MB-231 cells, fluorescence microscopy; type: cell-based, human; details: 1:1 MCF-10A (mcherry red) and MDA-MB-231 (GFP-green); 10 μM, 4 hrs; n=3
Protocol: To validate the selective nature of 3D towards cancer cells, normal human mammary cells were co-cultured (MCF-10A) with human TNBC cells (MDA-MB-231) in the same culture dish (FIG. 4B) and incubated with 3D to assess the compound's selectivity. This experiment was done by plating a 1:1 ratio of MCF-10A cells (mcherry red) and MDA-MB-231 cells (GFP-green) and challenging them with DMSO or 3D (10 μM) for 4 hrs as described in Example 2. Following the treatments, pictures were acquired at 20× using the EVOS-Fl microscope. […] This co-culture was repeated 3 separate times on different passages (n=3).

[5] = tested on: MCF-10A (normal mammary cells); test: Annexin V assay in normal MCF-10A mammary cells; type: cell-based; details: normal MCF-10A cells, 10 μM, n=5
Description: (§6) The effects of compound 3D on survival of MCF-10A (normal mammary cells) were thus examined.

[6] = tested on: MCF-10A (normal mammary cells); test: Cell morphology of normal MCF-10A cells after treatment; type: cell-based; details: 10 μM, 4 hrs
Description: as §6

MDA-MB-231 cells [7] = test: Cell morphology under phase contrast microscope, MDA-MB-231 cells; type: cell-based, human
Description: FIGS. 2B-2G are images of MDA-MB-231 cells treated with DMSO (control), NS-123 and 3D (FIGS. 2B, 2D and 2F) under a phase contrast microscope (10×) and apoptosis profiles for the respective images (FIGS. 2C, 2E and 2G) determined using flow cytometry.
To further investigate the type of cell death induced by treatment of TNBC cells with 3D, its activity was compared to the original parent radiosensitizing compound NS-123 (4-bromo-3-nitrophenyl propan-1-one). FIG. 2A depicts the chemical structures of both the parent NS-123 (left) and compound 3D (right) highlighting the substitution with iodide and sulfonyl moieties in 3D structure compared to a bromide and carbonyl in the original radiosensitizing NS-123.

[8] = tested on: ER-positive breast cancer cells; details: U.S. Pat. No. 8,541,476; cited from earlier work
ATM (P-ATM ser1981) = test: Western blot of ATM phosphorylation in MDA-MB-231 cells; type: cell-based, human; details: 4 hr treatment
Description: as §5

MDA-MB-231 cells [9] = test: Quantitative annexin V death assay (flow cytometry) in MDA-MB-231 cells; type: cell-based, human; details: n=4-7; for total annexin V-positive cells: DMSO 13.5±2.2%; for live cell population: DMSO 86.4±2.2%
Protocol: To confirm what type of cell death was responsible for the observed activity, a quantitative annexin V death assay was performed to quantify the amount of necrosis (non-specific toxicity) vs apoptosis (programmed cell death) induced by compound 3D. […] Compound 3D decreased live cell population from 86.4±2.2% (DMSO) to 48.1±3.0% (3D: p<0.001) and increased total annexin V-positive cells from 13.5±2.2% (DMSO) to 51.4±3.1% (3D: p<0.001).

O=[N+]([O-])c1ccccc1I [1-iodo-2-nitrobenzene, reference compound]
caspase 3/7 activation (HS-578T TNBC cell line): inactive | caspase 3/7 activation (BT-549 TNBC cell line): inactive | ROS accumulation in TNBC cells (MDA-MB-231 cells [1]): inactive

CCS(=O)(=O)c1ccc(F)c([N+](=O)[O-])c1 [Compound 3C, 4-(Ethylsulfonyl)-1-fluoro-2-nitrobenzene]
apoptosis / killing of TNBC cells by caspase 3/7 activation (MDA-MB-231 cells [2]): very low rates of apoptosis | caspase 3/7 positive cells (MDA-MB-231 cells [2]): 7.9±3.0%

CCS(=O)(=O)c1ccc(I)c([N+](=O)[O-])c1 [Compound 3D, 4-(Ethylsulfonyl)-1-iodo-2-nitrobenzene]
radiosensitizing effect on colony formation (MDA-MB-231 cells [3]): failed to enhance this action further; also recorded: no radiosensitizing effects | caspase 3/7 activation (HS-578T TNBC cell line): increased caspase 3/7 activation | radiosensitization (prostate cancer cells): radiosensitize | total H2AX (H2AX (P-H2AX ser139)): increased slightly | phosphorylated levels of H2AX (P-H2AX ser139) (H2AX (P-H2AX ser139); vs DMSO): significant increase; also recorded: induction | ROS accumulation in normal cells (MCF-10A cells): lacking any significant effects; also recorded: no significant increase | selectivity of apoptotic death in co-culture [4]: apoptotic death selectively occurred in the green cells (TNBC) while the red cells (normal) remained healthy | caspase 3/7 activation (BT-549 TNBC cell line): increased caspase 3/7 activation; also recorded: induced an activated caspase-3/7 population | total apoptosis ([5]; DMSO 12.7±5.3%): 12.2±3.2% | cell viability ([5]; DMSO 85.6±5.9%): 86.9±3.3% | apoptosis / killing of TNBC cells by caspase 3/7 activation (MDA-MB-231 cells [2]): induced specific caspase 3/7 activation; also recorded: high rates of apoptosis | early apoptosis population (MDA-MB-231 cells [2]; DMSO 0.7±0.1%): 0.9±0.2% | caspase 3/7-positive cells in late apoptosis phase (MDA-MB-231 cells [2]; DMSO 5.8±1.0%): 47.4±8.5% | caspase 3/7 positive cells (MDA-MB-231 cells [2]): 49.5±8.3% | effect on morphology / health of normal cells [6]: morphology remains intact; also recorded: no observable effect on the health of non-TNBC cells | cell appearance under phase contrast microscope (10×) (MDA-MB-231 cells [7]): rounded and unhealthy; also recorded: noticeably misshapen | radiosensitization [8]: radiosensitize | ROS accumulation in TNBC cells (MDA-MB-231 cells [1]): significantly raised the levels of ROS | increase in ROS accumulation compared to DMSO (MDA-MB-231 cells [1]; p=0.00005): ~3 fold | total ATM (ATM (P-ATM ser1981)): remains unchanged | phosphorylated levels of ATM (P-ATM ser1981) (ATM (P-ATM ser1981); vs DMSO): significant increase; also recorded: induction | total annexin V-positive cells (MDA-MB-231 cells [9]): 51.4±3.1% | live cell population (MDA-MB-231 cells [9]): 48.1±3.0%

CCC(=O)c1ccc(Br)c([N+](=O)[O-])c1 [NS-123, 4-bromo-3-nitrophenyl propan-1-one, reference compound]
cell appearance under phase contrast microscope (10×) (MDA-MB-231 cells [7]): normal healthy features | total annexin V-positive cells (MDA-MB-231 cells [9]): 11.6±2.4% | live cell population (MDA-MB-231 cells [9]): 88.3±2.4%
